In US10221179B2, “Substituted pyrazoloquinazolinones and pyrroloquinazolinones as allosteric modulators of group II metabotropic glutamate receptors” (DOMAIN THERAPEUTICS, priority 2014, dated 2019) one finds IC50 and melting point data, which are given here for 29 compounds.

The term IC50 denotes the concentration at which inhibition is half-maximal. As usually defined, the melting point is the temperature of the solid-liquid transition.

One series addresses T1, human mGluR2 (hmGluR2) (Homo sapiens, UniProt Q14416).
T1 construct: expressed in transfected cells; host or cells: HEK-293 cells, transient co-transfection by electroporation
Nature of the series: Ca++ functional assay, human mGluR2 transiently over-expressed in HEK-293 cells (agonist and negative allosteric modulator modes). Format: cell-based. The settings on record: glutamate at EC80, intracellular calcium (Fluo4AM), read-out: hmGluR2 negative allosteric modulator activity IC50. The method, then: Example 127: Human mGluR2 and mGluR3 Evaluation Using Ca^++ Functional Assay
Examples of the present invention were tested successively for their agonist and negative allosteric modulator activities on human mGluR2 (hmGluR2) and mGluR3 (hmGluR3) transiently over-expressed in HEK-293 cells.
Cell Culture and Transfection
HEK-293 cells are maintained in Modified Eagle's Medium supplemented with 10% Foetal Calf Serum, 1% Penicillin/Streptomycin and 1% non-essential amino acids at 37° C./5% CO2.
Cells are co-transfected by electroporation with four DNA plasmids encoding hmGluR2 or hmGluR3, a chimeric G protein allowing redirection of the activation signal to intracellular calcium pathway (Brabet I et al., Neuropharmacology 37(8), 1043-51, 1998), and two glutamate transporters minimizing receptor desensitization by endogenous glutamate. After transfection, cells are cultured for 24 h at 37° C./5% CO2.
Calcium Assay IC50 Determination
Receptor activity is detected by changes in intracellular calcium measured using the fluorescent Ca^2+ sensitive dye, Fluo4AM (Molecular Probes).
On the day of the assay, culture medium is aspirated and replaced during 3 hours by medium without serum supplemented with 1% Glutamax, 1% Penicillin/Streptomycin and 1% non-essential amino acids. Then, cells are washed with freshly prepared buffer B (HBSS 1×(PAA), Hepes 20 mM, MgSO4-7H2O 1 mM, Na2CO3 3.3 mM, CaCl2-2H2O 1.3 mM, 0.1% BSA, Probenecid 2.5 mM) and loaded at 37° C. in 5% CO2 for 1.5 hours with buffer B containing 1 μM Fluo4AM, 0.1 mg/mL Pluronic Acid, 7 μg/mL Glutamate Pyruvate Transaminase and 2 mM sodium pyruvate. Afterwards cells are washed twice with buffer B. Then cells are detached using StemPro Accutase (Fischer Scientific), resuspended in buffer B and seeded in 384 well plate at a density of 30,000 cells per well. Addition of compounds and intracellular Ca^2+ measurements (excitation 485 nm, emission 525 nm) are performed by the fluorescence microplate reader FLIPRTetra (Molecular Devices).
Agonist and negative allosteric modulator activities of compounds are consecutively evaluated on the same cell plate. […] Then, cells are stimulated by an EC80 glutamate concentration and fluorescence is recorded for additional 3 minutes. EC80 glutamate concentration is the concentration giving 80% of the maximal glutamate response. Agonist or negative allosteric modulator activity(ies) are evaluated in comparison to basal signals evoked by buffer B or EC80 glutamate alone, respectively.
For IC50 determination, a dose-response test is performed using 20 concentrations (ranging over 6 logs) of each compound. Dose-response curves are fitted using the sigmoidal dose-response (variable slope) analysis in GraphPad Prism program (Graph Pad Inc) and IC50 of negative allosteric modulator activity is calculated. Dose-response experiments are performed in duplicate, two times independently.

T1 sequence (Q14416 19-872): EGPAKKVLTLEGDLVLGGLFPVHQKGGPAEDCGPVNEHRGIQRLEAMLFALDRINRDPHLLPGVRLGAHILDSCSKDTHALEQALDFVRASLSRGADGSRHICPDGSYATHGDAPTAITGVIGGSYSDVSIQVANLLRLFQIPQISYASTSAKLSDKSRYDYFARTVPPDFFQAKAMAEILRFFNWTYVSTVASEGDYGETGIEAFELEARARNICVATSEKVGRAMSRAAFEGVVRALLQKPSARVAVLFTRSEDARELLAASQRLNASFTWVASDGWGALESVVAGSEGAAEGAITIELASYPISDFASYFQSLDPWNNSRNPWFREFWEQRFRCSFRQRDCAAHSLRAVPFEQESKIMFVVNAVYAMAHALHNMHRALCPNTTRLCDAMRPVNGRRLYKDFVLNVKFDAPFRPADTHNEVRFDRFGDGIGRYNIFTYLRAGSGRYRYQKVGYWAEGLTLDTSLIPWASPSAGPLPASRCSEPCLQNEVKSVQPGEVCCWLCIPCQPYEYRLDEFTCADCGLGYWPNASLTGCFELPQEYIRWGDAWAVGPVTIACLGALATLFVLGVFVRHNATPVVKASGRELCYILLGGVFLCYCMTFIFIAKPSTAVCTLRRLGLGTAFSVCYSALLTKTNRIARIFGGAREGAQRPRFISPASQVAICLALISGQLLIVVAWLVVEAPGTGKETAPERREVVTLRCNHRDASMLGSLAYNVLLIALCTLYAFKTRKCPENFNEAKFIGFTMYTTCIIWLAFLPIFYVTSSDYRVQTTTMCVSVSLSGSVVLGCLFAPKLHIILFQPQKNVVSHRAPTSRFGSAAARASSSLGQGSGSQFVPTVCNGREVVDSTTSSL

On to `CCc1cc(-c2cc3n(C)c(=O)c4ccccc4n3n2)ccn1.Cl` [Example 3, 2-(2-Ethyl-pyridin-4-yl)-4-methyl-4H-pyrazolo[1,5-a]quinazolin-5-one], for which the melting point is above 250 °C. In addition, the IC50 on human mGluR2 (hmGluR2) is below 1 µM.
`CCCc1cc(-c2cc3n(C)c(=O)c4ccccc4n3n2)ccn1.Cl` [Example 4, 2-(2-propyl-pyridin-4-yl)-4-methyl-4H-pyrazolo[1,5-a]quinazolin-5-one] had a melting point above 250 °C. The IC50 on human mGluR2 (hmGluR2) is below 1 µM.
`Cl.Cn1c(=O)c2ccccc2n2nc(-c3ccnc(C4CC4)c3)cc12` [Example 5, 2-(2-Cyclopropyl-pyridin-4-yl)-4-methyl-4H-pyrazolo[1,5-a]quinazolin-5-one] gave a melting point of 248 to 251 °C. Moreover, at human mGluR2 (hmGluR2), the IC50 was below 1 µM.
The corresponding values for `Cl.Cn1c(=O)c2ccccc2n2nc(-c3ccnc(C4CCC4)c3)cc12` [Example 6, 2-(2-cyclobutyl-pyridin-4-yl)-4-methyl-4H-pyrazolo[1,5-a]quinazolin-5-one] are 236 to 244 °C and below 1 µM.
The corresponding values for `CC(C)c1cc(-c2cc3n(C)c(=O)c4ccccc4n3n2)ccn1.Cl` [Example 11, 2-(2-Isopropyl-pyridin-4-yl)-4-methyl-4H-pyrazolo[1,5-a]quinazolin-5-one] are above 250 °C and below 1 µM.
Regarding `Cn1c(=O)c2ccccc2n2nc(-c3ccnc(C#N)c3)cc12` [Example 12, 4-(4-Methyl-5-oxo-4,5-dihydro-pyrazolo[1,5-a]quinazolin-2-yl)-pyridine-2-carbonitrile], the melting point is above 250 °C. At human mGluR2 (hmGluR2), the half-inhibitory concentration (IC50) was below 1 µM.
The matching figures for `COc1cc(-c2cc3n(C)c(=O)c4ccccc4n3n2)ccn1` [Example 14, 2-(2-Methoxy-pyridin-4-yl)-4-methyl-4H-pyrazolo[1,5-a]quinazolin-5-one]: above 250 °C and below 1 µM.
With `CCOc1cc(-c2cc3n(C)c(=O)c4ccccc4n3n2)ccn1` [Example 15, 2-(2-ethoxy-pyridin-4-yl)-4-methyl-4H-pyrazolo[1,5-a]quinazolin-5-one], the melting point was in the range of 180 to 182 °C. Moreover, at human mGluR2 (hmGluR2), the IC50 is below 1 µM.
The matching figures for `CC(C)Oc1cc(-c2cc3n(C)c(=O)c4ccccc4n3n2)ccn1` [Example 16, 2-(2-Isopropoxy-pyridin-4-yl)-4-methyl-4H-pyrazolo[1,5-a]quinazolin-5-one]: 173 to 176 °C and below 1 µM.
As for `Cn1c(=O)c2ccccc2n2nc(-c3ccnc(OC4CCC4)c3)cc12` [Example 17, 2-(2-Cyclobutoxy-pyridin-4-yl)-4-methyl-4H-pyrazolo[1,5-a]quinazolin-5-one], the melting point was in the range of 218 to 222 °C. The IC50 on human mGluR2 (hmGluR2) is below 1 µM.
The corresponding values for `Cn1c(=O)c2ccccc2n2nc(-c3ccnc(OCC4CC4)c3)cc12` [Example 19, 2-(2-Cyclopropylmethoxy-pyridin-4-yl)-4-methyl-4H-pyrazolo[1,5-a]quinazolin-5-one] are 185 to 189 °C and below 1 µM.
The compound `Cn1c(=O)c2ccccc2n2nc(-c3ccnc(OCC(F)(F)F)c3)cc12` [Example 21, 4-Methyl-2-[2-(2,2,2-trifluoro-ethoxy)-pyridin-4-yl]-4H-pyrazolo[1,5-a]quinazolin-5-one] displayed a melting point of 219 to 223 °C. Also, on human mGluR2 (hmGluR2), the IC50 is below 1 µM.
Compound `Cn1c(=O)c2ccccc2n2nc(-c3ccnc(OCC(F)F)c3)cc12` [Example 22, 4-Methyl-2-[2-(2,2-difluoro-ethoxy)-pyridin-4-yl]-4H-pyrazolo[1,5-a]quinazolin-5-one] returned a melting point of 209 to 213 °C. The IC50 at human mGluR2 (hmGluR2) was below 1 µM.
The corresponding values for `Cn1c(=O)c2ccccc2n2nc(-c3ccnc(OCC(C)(F)F)c3)cc12` [Example 23, 2-[2-(2,2-Difluoro-propoxy)-pyridin-4-yl]-4-methyl-4H-pyrazolo[1,5-a]quinazolin-5-one] are 189 to 191 °C and below 1 µM.
The corresponding values for `Cn1c(=O)c2ccccc2n2nc(-c3ccnc(OCC(F)(F)C(F)(F)F)c3)cc12` [Example 24, 4-Methyl-2-[2-(2,2,3,3,3-pentafluoro-propoxy)-pyridin-4-yl]-4H-pyrazolo[1,5-a]quinazolin-5-one] are 150 to 155 °C and below 1 µM.
The matching figures for `Cn1c(=O)c2ccccc2n2nc(-c3ccnc(OC(C(F)(F)F)C(F)(F)F)c3)cc12` [Example 25, 4-Methyl-2-[2-(2,2,2-trifluoro-1-trifluoromethyl-ethoxy)-pyridin-4-yl]-4H-pyrazolo[1,5-a]quinazolin-5-one]: 188 to 194 °C and below 1 µM.
`Cn1c(=O)c2ccccc2n2nc(-c3ccnc(C(F)(F)F)c3)cc12` [Example 26, 4-Methyl-2-(2-trifluoromethyl-pyridin-4-yl)-4H-pyrazolo[1,5-a]quinazolin-5-one] had a melting point of 232 to 244 °C. For the same compound, the IC50 at human mGluR2 (hmGluR2) is below 1 µM.
The corresponding values for `[2H]C([2H])([2H])n1c(=O)c2ccccc2n2nc(-c3ccnc(C(F)(F)F)c3)cc12` [Example 27, 4-Methyl(D3)-2-(2-trifluoromethyl-pyridin-4-yl)-4H-pyrazolo[1,5-a]quinazolin-5-one] are 232 to 237 °C and below 1 µM.
The matching figures for `CCn1c(=O)c2ccccc2n2nc(-c3ccnc(C(F)(F)F)c3)cc12` [Example 28, 4-Ethyl-2-(2-trifluoromethyl-pyridin-4-yl)-4H-pyrazolo[1,5-a]quinazolin-5-one]: 214 to 220 °C and below 1 µM.
The matching figures for `Cn1c(=O)c2ccccc2n2nc(-c3ccnc(C(F)F)c3)cc12` [Example 31, 4-Methyl-2-(2-difluoromethyl-pyridin-4-yl)-4H-pyrazolo[1,5-a]quinazolin-5-one]: 192 to 196 °C and below 1 µM.
`Cn1c(=O)c2ccccc2n2nc(-c3ccnc(C(C)(F)F)c3)cc12` [Example 32, 2-[2-(1,1-Difluoro-ethyl)-pyridin-4-yl]-4-methyl-4H-pyrazolo[1,5-a]quinazolin-5-one]: the melting point is 196 to 207 °C. Further, the IC50 at human mGluR2 (hmGluR2) was below 1 µM.
The compound `[2H]C([2H])([2H])n1c(=O)c2ccccc2n2nc(-c3ccnc(C(C)(F)F)c3)cc12` [Example 33, 2-[2-(1,1-Difluoro-ethyl)-pyridin-4-yl]-4-methyl(D3)-4H-pyrazolo[1,5-a]quinazolin-5-one] had a melting point of 198 to 205 °C. Besides, the IC50 at human mGluR2 (hmGluR2) was below 1 µM.
In turn, `Cc1ccc2c(c1)c(=O)n(C)c1cc(-c3ccnc(C(F)(F)F)c3)nn21` [Example 34] displayed a melting point of 215 to 218 °C. For the same compound, the IC50 on human mGluR2 (hmGluR2) is below 1 µM.
`COc1ccc2c(c1)c(=O)n(C)c1cc(-c3ccnc(C(F)(F)F)c3)nn21` [Example 36]: the melting point was 201 to 205 °C. Further, at human mGluR2 (hmGluR2), the IC50 is below 1 µM.
Compound `Cn1c(=O)c2cc(F)ccc2n2nc(-c3ccnc(C(F)(F)F)c3)cc12` [Example 38] showed a melting point above 250 °C. On human mGluR2 (hmGluR2), the IC50 is below 1 µM.
Take `Cc1cc(-c2cc3n(C)c(=O)c4ccccc4n3n2)cc(Cl)n1` [Example 105, 2-(2-Chloro-6-methyl-pyridin-4-yl)-4-methyl-4H-pyrazolo[1,5-a]quinazolin-5-one]: the IC50 on human mGluR2 (hmGluR2) was below 1 µM.
Turning to `Cc1cc(-c2cc3n(C)c(=O)c4ccccc4n3n2)cc(C2CC2)n1` [Example 106, 2-(2-Cyclopropyl-6-methyl-pyridin-4-yl)-4-methyl-4H-pyrazolo[1,5-a]quinazolin-5-one], on human mGluR2 (hmGluR2), the IC50 is below 1 µM.
On the same count and under the same terms, under `Cn1c(=O)c2ccccc2n2nc(-c3ccncc3Cl)cc12` [Example 108, 2-(3-Chloro-pyridin-4-yl)-4-methyl-4H-pyrazolo[1,5-a]quinazolin-5-one] stands below 1 µM.
On the same count and under the same terms, under `Cn1c(=O)c2ccc(F)cc2n2nc(-c3ccnc(Cl)c3)cc12` [Example 117, 2-(2-Chloro-pyridin-4-yl)-8-fluoro-4-methyl-4H-pyrazolo[1,5-a]quinazolin-5-one] stands below 1 µM.
